Three compounds from PMC10586511 (Molecular Pharmacology, 2023) can be followed below.

The target in the assay is T1, 5-HT1AR (serotonin 1A receptor) (Homo sapiens, UniProt P08908).
T1 sequence (P08908 1-422): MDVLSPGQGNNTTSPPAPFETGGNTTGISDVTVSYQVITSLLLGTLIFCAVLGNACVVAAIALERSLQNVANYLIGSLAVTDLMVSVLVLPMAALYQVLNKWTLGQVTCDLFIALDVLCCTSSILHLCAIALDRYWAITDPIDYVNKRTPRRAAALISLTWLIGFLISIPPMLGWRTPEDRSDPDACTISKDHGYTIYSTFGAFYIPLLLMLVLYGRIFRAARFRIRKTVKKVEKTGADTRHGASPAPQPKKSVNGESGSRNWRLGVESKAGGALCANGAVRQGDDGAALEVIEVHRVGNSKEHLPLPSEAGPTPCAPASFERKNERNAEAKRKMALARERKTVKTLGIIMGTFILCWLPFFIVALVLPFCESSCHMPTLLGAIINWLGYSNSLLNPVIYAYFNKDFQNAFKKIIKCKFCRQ
Description: G protein nanoBRET. It counts as cell-based. (In BRET a luciferase serves as donor, and the signal depends on an acceptor being close.)
Take `Cc1cnc(CNCC2(F)CCN(C(=O)c3ccc(F)c(Cl)c3)CC2)nc1` [F-15599]: the EC50 is 537 nM. In other words, the sub-micromolar range.
`O=c1[nH]c2ccccc2n1CCN1CCN(c2cccc(C(F)(F)F)c2)CC1` [Flibanserin]: the response was half-maximal at 170 nM (EC50). Compared with the last compound, the EC50 is about 3.2-fold lower.
Next, `COc1cc2c3c(c1OC)-c1ccccc1C[C@H]3N(C)CC2` [Nuciferine]: 16600 nM.

The term EC50 denotes the concentration that produces a half-maximal response. A higher EC50 goes with weaker potency.
